Assay: Log P by HPLC on reversed phase columns (EEC directive 79/831 Annex V.A8; methods [a], [b], [c])
Assay type: physicochemical
Conditions: not given
In short: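 Log P derived from retention times, interpolated linearly between bracketing straight-chain alkan-2-ones (3–16 carbons) of known Log P. Eluents ran acetonitrile 10% to 95% against water with 0.1% formic acid ([a], acidic), 0.001 M ammonium acetate ([b], neutral) or 0.1% phosphoric acid ([c], acidic); UV read-out.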

LogP	Structure (SMILES)
2.02^[a]	N#Cc1cncn1CC(O)(c1cccc(F)c1F)C1(F)CC1 (stereo not shown) [I-524]
3.79^[a]	C[Si](C)(C)C#Cc1ccc(C(O)(Cn2cncc2C#N)C2(F)CC2)c(F)c1 (stereo not shown) [I-608]
2.99^[a]	N#Cc1cncn1CC(O)(CC1CC1)c1cc(Br)cc(Br)c1 (stereo not shown) [I-498]
2.59^[a]	N#Cc1cncn1CC(O)(C#Cc1cc(F)cc(F)c1)C1(Cl)CC1 (stereo not shown) [I-319]
3.76^[a]	COC(C)(Cn1cncc1Br)c1ccc(Oc2ccc(Cl)cc2)cc1C(F)(F)F (stereo not shown) [I-201]
2.88^[a]	OC(Cn1cncc1Br)c1ccc(Oc2ccc(I)cc2)cc1Cl (stereo not shown) [I-28]
2.25^[a]	OC(Cn1cncc1F)c1ccc(Oc2ccc(Cl)cc2)nc1C(F)(F)F (stereo not shown) [I-123]
2.69^[a]	CC(C)C(O)(Cn1cncc1C#N)c1ccc(F)cc1Br (stereo not shown) [I-424]
2.27^[a]	OC(Cn1cncc1F)c1cnc(Oc2ccc(C(F)(F)F)cc2)cc1Cl (stereo not shown) [I-126]
2.76^[a]	N#Cc1cncn1CC(O)(c1ccc(Cl)c(Cl)c1F)C1(Cl)CC1 (stereo not shown) [I-630]
2.71^[a]	OC(Cn1cncc1Cl)c1ccc(Oc2ccc(Br)cc2)cc1Br (stereo not shown) [I-45]
3.25^[a]	CC(O)(Cn1cncc1Cl)c1ccc(Oc2ccc(I)cc2)cc1Br (stereo not shown) [I-187]
3.23^[a]	CC(O)(Cn1cncc1C#N)c1cnc(Oc2ccc(C(F)(F)F)cc2)cc1C(F)(F)F (stereo not shown) [I-218]
2.67^[a]	N#Cc1cncn1CC(O)(CC1CC1)c1c(F)cc(Cl)cc1F (stereo not shown) [I-512]
2.66^[a]	N#Cc1cncn1CC(O)(c1cc(F)c(Cl)cc1F)C1(Cl)CC1 (stereo not shown) [I-583]
3.00^[a]	CCc1cc(Cl)ccc1C(O)(Cn1cncc1C#N)C1(Cl)CC1 (stereo not shown) [I-335]
2.18^[a]	OC(Cn1cncc1Cl)c1ccc(Oc2ccc(Cl)cc2)cc1 (stereo not shown) [I-15]
3.15^[a]	CCOC(Cn1cncc1F)c1cnc(Oc2ccc(Cl)cc2)cc1C(F)(F)F (stereo not shown) [I-132]
2.78^[a]	N#Cc1cncn1CC(O)(c1ccc(F)cc1F)C1CCCC1 (stereo not shown) [I-478]
2.76^[a]	N#Cc1cncn1CC(O)(c1cc(Cl)cc(Cl)c1F)C1(Cl)CC1 (stereo not shown) [I-609]
2.39^[a]	N#Cc1cncn1CC(O)(c1c(F)ccc(Cl)c1Cl)C1(F)CC1 (stereo not shown) [I-565]
2.64^[a]	CC(C)(C)C(O)(Cn1cncc1C#N)c1cc(F)cc(F)c1 (stereo not shown) [I-457]
3.81^[a]	CC(O)(Cn1cncc1C#N)c1ccc(Oc2ccc(I)cc2)cc1Br (stereo not shown) [I-217]

LogP	Structure (SMILES)
2.90^[a]	CC(O)(Cn1cncc1Cl)c1ccc(Oc2ccc(OC(F)(F)F)cc2)c(Br)c1 (stereo not shown) [I-157]
3.91^[a]	N#Cc1cncn1CC(O)(CCCC1CCCCC1)CC1CC1 (stereo not shown) [I-666]
2.46^[a]	CC(C)C(O)(Cn1cncc1C#N)c1ccccc1C(F)(F)F (stereo not shown) [I-345]
1.98^[a]	C=CCC(O)(Cn1cncc1C#N)C1(Cl)CC1 (stereo not shown) [I-669]
2.97^[a]	N#Cc1cncn1CC(O)(CC1CC1)c1cc(F)c(Cl)c(Cl)c1 (stereo not shown) [I-530]
2.78^[a]	N#Cc1cncn1CC(O)(c1ccc(C(F)(F)F)cc1Br)C1(F)CC1 (stereo not shown) [I-435]
2.12^[a]	N#Cc1cncn1CC(O)(c1cccc(F)c1Cl)C1(F)CC1 (stereo not shown) [I-555]
4.03^[a]	COCOC(Cn1cncc1C#N)c1ccc(Oc2ccc(Cl)cc2)cc1C(F)(F)F (stereo not shown) [I-82]
2.37^[a]	N#Cc1cncn1CC(O)c1ccc(Oc2ccc(Cl)nc2)nc1C(F)(F)F (stereo not shown) [I-151]
3.19^[a]	N#Cc1cncn1CC(O)(CCC1CCCCC1)C1(F)CC1 (stereo not shown) [I-662]
2.36^[a]	N#Cc1cncn1CC(O)(CC1CC1)c1cc(F)c(F)cc1F (stereo not shown) [I-514]
2.96^[a]	OC(Cn1cncc1Cl)c1ccc(Oc2ccc(Br)cc2)cc1C(F)(F)F (stereo not shown) [I-20]
3.48^[a]	N#Cc1cncn1CC(O)c1ccc(Oc2ccc(I)cc2)cc1Br (stereo not shown) [I-110]
2.86^[a]	OC(Cn1cncc1Cl)c1ccc(Oc2ccc(Cl)cc2)cc1C(F)(F)F (stereo not shown) [I-21]
2.74^[a]	N#Cc1cncn1CC(O)(CC1CC1)c1cc(F)c(F)c(Br)c1 (stereo not shown) [I-494]
2.78^[a]	OC(Cn1cncc1Br)c1ccc(Oc2ccc(I)cc2)cc1Br (stereo not shown) [I-109]
2.82^[a]	OC(Cn1cncc1Cl)c1ccc(Oc2ccc(OC(F)(F)F)cc2)c(Br)c1 (stereo not shown) [I-05]
3.70^[a]	C[Si](C)(C)CC(O)(Cn1cncc1C#N)c1ccc(OC(F)(F)F)cc1 (stereo not shown) [I-270]
2.88^[a]	CC(C)(C)C(O)(Cn1cncc1C#N)c1cc(F)cc(Cl)c1 (stereo not shown) [I-495]
3.05^[a]	N#Cc1cncn1CC(O)(c1ccc(F)cc1F)C1CCCCC1 (stereo not shown) [I-481]
2.78^[a]	CCCC(O)(Cn1cncc1C#N)c1ccc(Cl)cc1F (stereo not shown) [I-401]
3.72^[a]	CCCC(C)C(O)(Cn1cncc1C#N)c1ccc(Cl)cc1Cl (single isomer, unassigned) [I-316]
2.88^[a]	N#Cc1cncn1CC(O)(c1ccc(Br)cc1Cl)C1CC1 (stereo not shown) [I-420]

LogP	Structure (SMILES)
2.39^[a]	N#Cc1cncn1CC(O)(c1cc(Cl)ccc1Cl)C1(F)CC1 (stereo not shown) [I-623]
2.73^[a]	C/C=C(\C)C(O)(Cn1cncc1C#N)c1ccc(Cl)cc1F (stereo not shown) [I-397]
2.08^[a]	N#Cc1cncn1CC(O)(c1c(F)cccc1Cl)C1(F)CC1 (stereo not shown) [I-434]
3.83^[a]	CC(C)(C)C#Cc1ccc(C(O)(Cn2cncc2C#N)C2(F)CC2)c(Cl)c1 (stereo not shown) [I-642]
5.19^[a]	OC(CCCC1CCCCC1)(Cn1cncc1C(F)(F)F)C1(Cl)CC1 (stereo not shown) [I-676]
3.7^8[a]	CC(=O)OC(Cn1cncc1C#N)c1ccc(Oc2ccc(Cl)cc2)cc1C(F)(F)F (stereo not shown) [I-86]
2.59^[a]	N#Cc1cncn1CC(O)(c1cc(F)c(Cl)cc1Cl)C1(F)CC1 (stereo not shown) [I-578]
3.03^[a]	N#Cc1cncn1CC(O)(c1ccc(C#CC2CC2)cc1Cl)C1(F)CC1 (stereo not shown) [I-639]
2.23^[a]	OC(Cn1cncc1Br)c1ccc(Oc2ccc(Cl)cc2)cc1 (stereo not shown) [I-18]
1.75^[a]	OC(Cn1cncc1F)c1ccc(Oc2ccc(Br)nc2)nc1C(F)(F)F (stereo not shown) [I-155]
3.85^[a]	CC(C)(C)CC(O)(Cn1cncc1C#N)c1ccc(C(F)(F)F)cc1Cl (stereo not shown) [I-268]
3.06^[a]	CC(C)(C)CC(O)(Cn1cncc1C#N)c1ccc(F)cc1F (stereo not shown) [I-238]
2.86^[a]	CCc1ccc(C(O)(Cn2cncc2C#N)C2(Cl)CC2)c(Cl)c1 (stereo not shown) [I-353]
2.75^[a]	N#Cc1cncn1CC(O)(CC1CC1)c1ccc(Cl)cc1F (stereo not shown) [I-442]
3.39^[a]	CC(C)CC(O)(Cn1cncc1C#N)c1ccc(Cl)cc1Cl (stereo not shown) [I-303]
3.07^[a]	CC(=O)c1cncn1CC(C)(O)c1ccc(Oc2ccc(Br)cc2)cc1Cl (stereo not shown) [I-197]
1.94^[a]	C=CC(C)C(O)(Cn1cncc1C#N)C1(F)CC1 (stereo not shown) [I-375]
3.54^[a]	CCC(=O)OC(Cn1cncc1F)c1ccc(Oc2ccc(Cl)cc2)cc1C(F)(F)F (stereo not shown) [I-105]
3.54^[a]	CCOC(Cn1cncc1F)c1ccc(Oc2ccc(Cl)cc2)cc1C(F)(F)F (stereo not shown) [I-107]
2.03^[a]	N#Cc1ccc(Oc2ccc(C(O)Cn3cncc3Cl)c(Cl)c2)cc1 (stereo not shown) [I-06]
1.98^[a]	N#Cc1cncn1CC(O)(c1ccc(F)cc1)C1CC1 (stereo not shown) [I-411]
2.62^[a]	CC(O)(Cn1cncc1F)c1ccc(Oc2ccc(S(F)(F)(F)(F)F)cc2)nc1C(F)(F)F (stereo not shown) [I-297]
4.24^[a]	C[Si](C)(C)CCC(O)(Cn1cncc1C(F)(F)F)C1(Cl)CC1 (stereo not shown) [I-691]

LogP	Structure (SMILES)
2.80^[a]	N#Cc1cncn1CC(O)(c1ccc(C(F)(F)F)cc1Cl)C1(Cl)CC1 (stereo not shown) [I-264]
2.43^[a]	CC(O)(Cn1cncc1F)c1cnc(Oc2ccc(Cl)cc2F)cc1C(F)(F)F (stereo not shown) [I-229]
3.13^[a]	N#Cc1cncn1CC(O)c1cnc(Oc2ccc(Cl)cc2F)cc1C(F)(F)F (stereo not shown) [I-114]
2.25^[a]	N#Cc1cncn1CC(O)(c1cccc(F)c1Cl)C1(Cl)CC1 (stereo not shown) [I-557]
3.17^[a]	CC(O)(Cn1cncc1Br)c1ccc(Oc2ccc(I)cc2)cc1Cl (stereo not shown) [I-172]
2.71^[a]	N#Cc1cncn1CC(O)(c1ccc(Br)cc1Br)C1(F)CC1 (stereo not shown) [I-433]
2.71^[a]	N#Cc1cncn1CC(O)(CC1CC1)c1cc(F)c(F)c(Cl)c1 (stereo not shown) [I-492]
2.51^[a]	N#Cc1cncn1CC(O)(c1cc(F)cc(Br)c1)C1(F)CC1 (stereo not shown) [I-537]
3.37^[a]	N#Cc1cncn1CC(O)(c1ccc(/C=C/C2CC2)cc1Cl)C1(Cl)CC1 (stereo not shown) [I-365]
3.24^[a]	N#Cc1cncn1CC(O)c1ccc(Oc2ccc(I)cc2)cc1F (stereo not shown) [I-49]
2.25^[a]	N#Cc1cncn1CC(O)(c1ccc(F)c(F)c1Cl)C1(F)CC1 (stereo not shown) [I-636]
2.76^[a]	N#Cc1cncn1CC(O)(c1cc(Cl)cc(Br)c1)C1(F)CC1 (stereo not shown) [I-536]
2.10^[a]	OC(Cn1cncc1Cl)c1ccc(Oc2ccc(Br)cn2)cc1Cl (stereo not shown) [I-79]
2.32^[a]	CC(O)(Cn1cncc1F)c1ccc(Oc2ccc(Cl)cc2)nc1C(F)(F)F (stereo not shown) [I-257]
2.90^[a]	CC(O)(Cn1cncc1Cl)c1ccc(Oc2ccc(Br)cc2)cc1C(F)(F)F (stereo not shown) [I-169]
2.11^[a]	OC(Cn1cncc1F)c1cnc(Oc2ccc(C(F)F)cc2)cc1C(F)(F)F (stereo not shown) [I-116]
3.35^[a]	C[Si](C)(C)CC(O)(Cn1cncc1C#N)c1ccc(Cl)cc1 (stereo not shown) [I-224]
2.56^[a]	N#Cc1cncn1CC(O)c1ccc(Oc2ccc(C(F)(F)F)nc2)nc1C(F)(F)F (stereo not shown) [I-143]
3.71^[a]	N#Cc1cncn1CC(O)(CCCC1CCCCC1)C1(F)CC1 (stereo not shown) [I-672]
3.99^[a]	CC(C)(C)C#Cc1ccc(C(O)(Cn2cncc2C#N)C2(Cl)CC2)c(Cl)c1 (stereo not shown) [I-657]

Structure (SMILES)	LogP
N#Cc1cncn1CC(O)(c1ccc(F)nc1F)C1(Cl)CC1 (stereo not shown) [I-550]	1.98^[a]

Same assay, conditions: reversed phase HPLC column; method [a]: LC-UV, acidic range, 0.1% formic acid in water and acetonitrile as eluent (linear gradient from 10% to 95% acetonitrile)

chromatographic logP	Structure (SMILES)
1.88	N#Cc1cncn1CC(=O)c1ccc(Cl)s1 [IX-125]
1.94	N#Cc1cncn1CC(=O)c1ccc(Cl)cc1F [IX-147]
3.19	O=C(Cn1cncc1Br)c1ccc(Oc2ccc(I)cc2)cc1F [IX-48]
2.02	N#Cc1cncn1CC(=O)c1cccc(Cl)c1F [IX-148]
